Assay results reported in US12492164B2, “Fluorine substituted cyclohexene analogues of gamma-aminobutyric acid (GABA)” (Northwestern University, priority 2019, dated 2025).
Where a name gives a salt, the structure may show the parent alone. Read-outs that look alike come from different tables or passages of the source.

What was measured:
hOAT = molecular target: T1, hOAT (Homo sapiens, UniProt P04181); assay: Coupled enzyme assay, time-dependent inactivation of hOAT; format: biochemical
T1 construct: made in house
T1 sequence (P04181 26-439): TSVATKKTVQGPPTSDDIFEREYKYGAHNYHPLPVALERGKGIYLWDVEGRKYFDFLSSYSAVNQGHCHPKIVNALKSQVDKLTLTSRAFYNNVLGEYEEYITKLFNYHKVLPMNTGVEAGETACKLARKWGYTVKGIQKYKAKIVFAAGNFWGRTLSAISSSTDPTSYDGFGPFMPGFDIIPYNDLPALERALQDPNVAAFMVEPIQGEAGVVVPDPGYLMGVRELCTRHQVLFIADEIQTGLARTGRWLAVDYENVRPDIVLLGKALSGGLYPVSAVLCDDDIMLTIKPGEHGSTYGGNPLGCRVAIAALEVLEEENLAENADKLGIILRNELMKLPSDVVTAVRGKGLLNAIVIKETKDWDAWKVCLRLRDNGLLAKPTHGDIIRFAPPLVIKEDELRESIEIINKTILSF
Experimental: (§1) Kinetic Studies of Fluorine-Substituted Cyclohexene Analogues.
(§2) hOAT and PYCR1 were expressed, grown, and purified according to literature procedures.4, 5 GABA-AT was isolated from pig brains and purified according to a literature procedure.6 Coupled enzyme assays for GABA-AT, hOAT, Ala-AT, and Asp-AT were carried out according to previous procedures.7, 8

GABA-AT = molecular target: T2, GABA-AT (Sus scrofa, UniProt P80147); assay: Coupled enzyme assay, time-dependent inactivation of GABA-AT; format: biochemical, pig
T2 construct: GABA-AT was isolated from pig brains and purified according to a literature procedure; from tissue; host or cells: pig brain
T2 sequence (P80147 29-500): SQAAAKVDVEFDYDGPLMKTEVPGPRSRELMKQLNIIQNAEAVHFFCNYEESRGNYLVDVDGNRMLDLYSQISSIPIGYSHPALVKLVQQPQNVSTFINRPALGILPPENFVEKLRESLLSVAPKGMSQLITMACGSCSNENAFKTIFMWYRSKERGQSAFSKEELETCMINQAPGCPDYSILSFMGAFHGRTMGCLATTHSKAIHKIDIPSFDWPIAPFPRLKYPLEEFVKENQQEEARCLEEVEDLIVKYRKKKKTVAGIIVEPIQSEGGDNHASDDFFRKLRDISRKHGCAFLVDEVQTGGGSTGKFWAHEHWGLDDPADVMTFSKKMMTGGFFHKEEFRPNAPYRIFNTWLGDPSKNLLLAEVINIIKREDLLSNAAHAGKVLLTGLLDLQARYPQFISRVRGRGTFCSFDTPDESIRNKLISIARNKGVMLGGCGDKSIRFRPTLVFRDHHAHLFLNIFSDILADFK
Experimental: as §1, §2

HCC tumor = conditions: doses of 0.1 and 1.0 mg/kg; cited from earlier work
[1] = read-out: kinact/KI (converted)
[2] = inactivation of GABA-AT, pH 8.0
[3] = inactivation of GABA-AT, pH 8.0, read-out: kinact/KI (converted)
[4] = GABA-AT, pH 8.0, bound: KI is greater than kobs (max)/ratio (footnote b)
[5] = GABA-AT, pH 8.0, bound: kinact is greater than maximum kobs in time-dependent assay (footnote b)

Row | SMILES | kinact/KI (hOAT; [1]) [M⁻¹ s⁻¹] | Ki (GABA-AT; [2]) [µM] | kinact (GABA-AT; [2]) [s⁻¹] | kinact/KI (GABA-AT; [3]) [M⁻¹ s⁻¹] | Ki (hOAT) [µM] | kinact (hOAT; read-out: kinact (converted)) [s⁻¹] | Ki (GABA-AT; [4]) [µM] | kinact (GABA-AT; [5]) [s⁻¹] | kinact/KI (GABA-AT; pH 8) [M⁻¹ s⁻¹] | Ki (GABA-AT; GABA-AT, pH 6.5) [µM] | kinact (GABA-AT; GABA-AT, pH 6.5) [s⁻¹] | kinact/KI (GABA-AT; GABA-AT, pH 6.5, read-out: kinact/KI (converted)) [M⁻¹ s⁻¹] | kinact/KI (GABA-AT; GABA-AT, pH 8.0, ratio determined by the slope of kobs vs [I] (footnote b), read-out: kinact/KI (converted)) [M⁻¹ s⁻¹] | kinact (hOAT) [s⁻¹] | kinact/KI (hOAT) [M⁻¹ s⁻¹] | in vivo HCC tumor growth (HCC tumor) | α-fetoprotein levels (a biomarker for HCC) (HCC tumor)
1 | N[C@H]1C[C@@H](C(=O)O)C[C@@H]1F [Compound 1, (1R,3S,4S)-3-amino-4-fluorocyclopentane-1-carboxylic acid, reference compound] | 1 | 78 ± 40 | 0.000283 | 3.67 |  |  |  |  |  |  |  |  |  |  |  |  | 
2 | N[C@H]1C=C(C(=O)O)CC[C@@H]1F [Compound 8, (3S,4S)-3-Amino-4-fluorocyclohex-1-ene-1-carboxylic acid hydrochloride] | 42.7 | 2530 ± 710 | 0.00163 | 0.65 | 31 ± 7 | 0.00133 |  |  |  |  |  |  |  |  |  |  | 
3 | N[C@H]1CC(C(=O)O)=CC[C@@H]1F [Compound 10, (4S,5S)-5-Amino-4-fluorocyclohex-1-ene-1-carboxylic acid hydrochloride] | 0.283 | 4280 ± 2050 | 0.000467 | 0.108 | 4380 ± 860 | 0.00125 |  |  |  |  |  |  |  |  |  |  | 
4 | N[C@H]1CC(C(=O)O)=CCC1(F)F [Compound 11, (S)-5-Amino-4,4-difluorocyclohex-1-ene-1-carboxylic acid hydrochloride] | 2.5 |  |  |  | 540 ± 17 | 0.00138 | > 9630 | > 0.00483 | 0.5 |  |  |  |  |  |  |  | 
5 | N[C@H]1C=C(C(=O)O)CCC1(F)F [Compound 9, (S)-3-Amino-4,4-difluorocyclohex-1-ene-1-carboxylic acid hydrochloride] | 339 |  |  |  | 2.3 ± 0.7 | 0.0008 | > 120 | > 0.003 |  | 1100 | 0.00333 | 3 | 25.3 |  |  |  | 
6 | N[C@H]1C[C@@H](C(=O)O)CC1=C(C(F)(F)F)C(F)(F)F [Compound 7, (1S,3S)-3-Amino-4-(hexafluoropropan-2-ylidenyl)cyclopentane-1-carboxylic Acid, reference compound] |  |  |  |  | 65 ± 10 |  |  |  |  |  |  |  |  | 0.00095 ± 5e-05 | 14.5 | suppressed | dramatically reduced
